Molecular target: T1, Smc1/Smc3 heterodimer with Scc1-C (cohesin) (Saccharomyces cerevisiae, UniProt P32908+P47037, P47037:K38I, form not given)
T1 construct: N-terminal tags; Sf9 insect cells; fluorescently labelled for MST; with Sister chromatid cohesion protein 1
T1 sequence (P32908 1-1225): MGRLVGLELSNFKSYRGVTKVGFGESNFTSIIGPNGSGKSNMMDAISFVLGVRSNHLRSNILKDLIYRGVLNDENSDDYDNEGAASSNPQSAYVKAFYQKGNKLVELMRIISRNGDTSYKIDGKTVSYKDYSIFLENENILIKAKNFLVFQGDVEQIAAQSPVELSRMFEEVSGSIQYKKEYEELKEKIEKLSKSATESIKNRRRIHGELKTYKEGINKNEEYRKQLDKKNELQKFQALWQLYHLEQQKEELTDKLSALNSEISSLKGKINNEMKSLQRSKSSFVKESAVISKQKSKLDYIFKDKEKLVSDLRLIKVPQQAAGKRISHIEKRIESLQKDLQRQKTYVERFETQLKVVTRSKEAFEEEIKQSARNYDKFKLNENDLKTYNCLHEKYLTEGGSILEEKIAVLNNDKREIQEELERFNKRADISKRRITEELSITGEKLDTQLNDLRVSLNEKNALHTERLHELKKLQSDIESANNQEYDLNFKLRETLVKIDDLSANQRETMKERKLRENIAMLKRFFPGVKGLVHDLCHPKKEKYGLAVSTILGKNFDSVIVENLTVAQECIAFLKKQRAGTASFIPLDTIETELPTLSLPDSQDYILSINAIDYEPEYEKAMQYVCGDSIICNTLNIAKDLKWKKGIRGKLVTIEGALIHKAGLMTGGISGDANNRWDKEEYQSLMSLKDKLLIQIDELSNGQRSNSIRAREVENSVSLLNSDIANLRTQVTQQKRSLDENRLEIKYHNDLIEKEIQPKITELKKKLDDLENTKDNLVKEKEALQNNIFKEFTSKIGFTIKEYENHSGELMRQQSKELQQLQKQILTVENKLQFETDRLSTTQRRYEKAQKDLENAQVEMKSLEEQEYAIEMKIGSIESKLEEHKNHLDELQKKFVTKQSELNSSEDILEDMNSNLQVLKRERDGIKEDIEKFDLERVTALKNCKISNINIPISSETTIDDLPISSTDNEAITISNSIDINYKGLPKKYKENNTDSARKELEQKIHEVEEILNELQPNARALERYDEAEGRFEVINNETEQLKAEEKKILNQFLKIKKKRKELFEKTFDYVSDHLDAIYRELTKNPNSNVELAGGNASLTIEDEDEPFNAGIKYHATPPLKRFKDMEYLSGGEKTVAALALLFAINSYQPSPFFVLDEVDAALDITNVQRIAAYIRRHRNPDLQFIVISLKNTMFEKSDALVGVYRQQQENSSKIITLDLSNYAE
T1 sequence (P47037 1-1230 K38I): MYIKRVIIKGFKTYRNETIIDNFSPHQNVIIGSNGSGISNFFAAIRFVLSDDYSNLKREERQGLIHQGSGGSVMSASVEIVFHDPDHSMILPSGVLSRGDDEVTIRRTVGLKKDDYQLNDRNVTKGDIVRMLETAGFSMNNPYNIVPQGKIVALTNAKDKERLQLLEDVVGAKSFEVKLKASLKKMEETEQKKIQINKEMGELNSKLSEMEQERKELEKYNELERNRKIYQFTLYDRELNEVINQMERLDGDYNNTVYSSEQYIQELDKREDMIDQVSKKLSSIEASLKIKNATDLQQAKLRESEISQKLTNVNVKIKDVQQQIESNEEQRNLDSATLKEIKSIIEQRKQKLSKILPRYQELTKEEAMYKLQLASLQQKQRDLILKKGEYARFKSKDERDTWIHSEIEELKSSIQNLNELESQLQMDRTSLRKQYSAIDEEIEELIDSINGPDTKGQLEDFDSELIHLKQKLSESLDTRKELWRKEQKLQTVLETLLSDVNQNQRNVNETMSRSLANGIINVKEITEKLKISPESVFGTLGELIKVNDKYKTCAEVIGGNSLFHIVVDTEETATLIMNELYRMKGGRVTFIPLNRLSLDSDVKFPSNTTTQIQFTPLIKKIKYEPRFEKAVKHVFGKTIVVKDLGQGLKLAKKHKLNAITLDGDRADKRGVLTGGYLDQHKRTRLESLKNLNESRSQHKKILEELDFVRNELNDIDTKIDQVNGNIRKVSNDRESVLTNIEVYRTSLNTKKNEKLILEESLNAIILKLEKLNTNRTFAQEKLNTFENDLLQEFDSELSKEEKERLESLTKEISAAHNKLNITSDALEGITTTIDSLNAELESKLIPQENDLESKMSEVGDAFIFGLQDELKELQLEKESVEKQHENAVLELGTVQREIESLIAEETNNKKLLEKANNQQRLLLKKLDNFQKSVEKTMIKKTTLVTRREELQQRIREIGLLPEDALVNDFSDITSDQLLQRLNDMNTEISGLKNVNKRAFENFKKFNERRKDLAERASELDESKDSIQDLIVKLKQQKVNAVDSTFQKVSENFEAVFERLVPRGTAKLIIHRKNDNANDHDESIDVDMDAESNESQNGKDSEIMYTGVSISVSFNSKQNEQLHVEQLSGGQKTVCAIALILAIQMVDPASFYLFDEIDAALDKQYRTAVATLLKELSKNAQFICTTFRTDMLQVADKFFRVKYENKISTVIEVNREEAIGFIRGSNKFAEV
T1 sequence (Q12158 1-566 partner): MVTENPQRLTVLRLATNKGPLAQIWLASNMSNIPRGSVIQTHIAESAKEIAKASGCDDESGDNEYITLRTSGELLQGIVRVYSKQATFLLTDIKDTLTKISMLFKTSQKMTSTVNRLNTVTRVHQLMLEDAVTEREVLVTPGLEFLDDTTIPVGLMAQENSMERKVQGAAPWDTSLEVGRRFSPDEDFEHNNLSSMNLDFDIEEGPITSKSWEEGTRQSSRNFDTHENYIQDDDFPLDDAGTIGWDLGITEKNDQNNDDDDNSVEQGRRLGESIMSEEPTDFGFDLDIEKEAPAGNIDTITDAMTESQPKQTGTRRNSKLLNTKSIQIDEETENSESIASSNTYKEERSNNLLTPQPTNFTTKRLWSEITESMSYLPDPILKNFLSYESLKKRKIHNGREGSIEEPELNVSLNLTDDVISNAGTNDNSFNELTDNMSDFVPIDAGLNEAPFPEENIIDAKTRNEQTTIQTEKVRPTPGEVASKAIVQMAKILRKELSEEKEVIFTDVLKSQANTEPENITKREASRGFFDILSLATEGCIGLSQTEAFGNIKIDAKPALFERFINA
Experiment: microscale thermophoresis
Conditions: fluorescently labelled protein; Smc1 co-purified with Scc1-C, plus Smc3; binding abrogated

Nc1ncnc2c1ncn2[C@@H]1O[C@H](COP(=O)(O)OP(=O)(O)O)[C@@H](O)[C@H]1O [ADP]
microscale thermophoresis: each of the Walker A mutations efficiently abrogated binding to ATP and ADP

Nc1ncnc2c1ncn2[C@@H]1O[C@H](COP(=O)(O)OP(=O)(O)OP(=O)(O)O)[C@@H](O)[C@H]1O [ATP]
microscale thermophoresis: each of the Walker A mutations efficiently abrogated binding to ATP and ADP
